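Grown in 96-well plates, cells were treated for 48 hours with each compound at five concentrations. Insufficient inhibition: endpoint recorded as highest concentration tested. GI50 is the concentration that inhibits growth by half. TGI is the concentration that stops growth completely.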
Legend:
Test in all cases: NCI-60 cell line screen, 48 h
[1] = tested on: 786-0 renal
[2] = tested on: A498 renal
[3] = tested on: A549 NSCLC
[4] = tested on: ACHN renal
[5] = tested on: CAKI-1 renal
[6] = tested on: CCRF-CEM leukemia
[7] = tested on: COLO 205 colon
[8] = tested on: DU-145 prostate
[9] = tested on: HCC-2998 colon
[10] = tested on: HCT-116 colon
[11] = tested on: HCT-15 colon
[12] = tested on: HL-60(TB) leukemia
[13] = tested on: HOP-92 NSCLC
[14] = tested on: HS 578T breast
[15] = tested on: HT29 colon
[16] = tested on: IGROV1 ovarian
[17] = tested on: K-562 leukemia
[18] = tested on: M14 melanoma
[19] = tested on: MCF7 breast
[20] = tested on: MDA-MB-435
[21] = tested on: MOLT-4 leukemia
[22] = tested on: NCI-H226 lung
[23] = tested on: NCI-H23 lung
[24] = tested on: NCI-H460 lung
[25] = tested on: NCI/ADR-RES ovarian
[26] = tested on: OVCAR-3 ovarian
[27] = tested on: OVCAR-4 ovarian
[28] = tested on: OVCAR-5 ovarian
[29] = tested on: OVCAR-8 ovarian
[30] = tested on: PC-3 prostate
[31] = tested on: RPMI-8226 leukemia
[32] = tested on: RXF 393 renal
[33] = tested on: SF-539 CNS
[34] = tested on: SK-MEL-28 melanoma
[35] = tested on: SK-MEL-5 melanoma
[36] = tested on: SK-OV-3 ovarian
[37] = tested on: SNB-19 CNS
[38] = tested on: SNB-75 CNS
[39] = tested on: SR leukemia
[40] = tested on: SW-620 colon
[41] = tested on: T-47D breast
[42] = tested on: TK-10 renal
[43] = tested on: U251 CNS
[44] = tested on: UACC-257 melanoma
[45] = tested on: UACC-62 melanoma
[46] = tested on: UO-31 renal

CCOP(=O)(OCC)OC[C@]12CCC(C)(C)C[C@H]1C1=CC[C@@H]3[C@@]4(C)C/C(=C\c5cccnc5)[C@H](OP(=O)(OCC)OCC)C(C)(C)[C@@H]4CC[C@@]3(C)[C@]1(C)CC2
GI50 [1]: 1860 nM | TGI [1]: 3890 nM | GI50 [2]: 1640 nM | TGI [2]: 4440 nM | GI50 [3]: 2000 nM | TGI [3]: 5590 nM | GI50 [4]: 2300 nM | TGI [4]: 7140 nM | GI50 [5]: 1090 nM | TGI [5]: 2650 nM | GI50 [6]: 1770 nM | TGI [6]: 4000 nM | GI50 [7]: 1570 nM | TGI [7]: 3320 nM | GI50 [8]: 1750 nM | TGI [8]: 3300 nM | GI50 [9]: 1590 nM | TGI [9]: 3030 nM | GI50 [10]: 1250 nM | TGI [10]: 2580 nM | GI50 [11]: 1560 nM | TGI [11]: 3430 nM | GI50 [12]: 581 nM | TGI [12]: 2300 nM | GI50 [13]: 1220 nM | TGI [13]: 2900 nM | GI50 [14]: 2060 nM | TGI [14]: 5380 nM | GI50 [15]: 1520 nM | TGI [15]: 3160 nM | GI50 [16]: 2210 nM | TGI [16]: 5610 nM | GI50 [17]: 1180 nM | TGI [17]: 3530 nM | GI50 [18]: 1800 nM | TGI [18]: 3700 nM | GI50 [19]: 1370 nM | TGI [19]: 3040 nM | GI50 [20]: 1600 nM | TGI [20]: 3230 nM | GI50 [21]: 715 nM | TGI [21]: 2420 nM | GI50 [22]: 1440 nM | TGI [22]: 3130 nM | GI50 [23]: 1610 nM | TGI [23]: 3290 nM | GI50 [24]: 1780 nM | TGI [24]: 3550 nM | GI50 [25]: 2250 nM | TGI [25]: 6050 nM | GI50 [26]: 1680 nM | TGI [26]: 3390 nM | GI50 [27]: 1700 nM | TGI [27]: 4370 nM | GI50 [28]: 1790 nM | TGI [28]: 3340 nM | GI50 [29]: 2290 nM | TGI [29]: 6520 nM | GI50 [30]: 727 nM | TGI [30]: 2770 nM | GI50 [31]: 939 nM | TGI [31]: 3330 nM | GI50 [32]: 1190 nM | TGI [32]: 2490 nM | GI50 [33]: 1730 nM | TGI [33]: 3200 nM | GI50 [34]: 1710 nM | TGI [34]: 3270 nM | GI50 [35]: 1420 nM | TGI [35]: 2730 nM | GI50 [36]: 2100 nM | TGI [36]: 5280 nM | GI50 [37]: 1660 nM | TGI [37]: 3140 nM | GI50 [38]: 1600 nM | TGI [38]: 3910 nM | GI50 [39]: 1020 nM | TGI [39]: 2780 nM | GI50 [40]: 1790 nM | TGI [40]: 3610 nM | GI50 [41]: 1580 nM | TGI [41]: 8350 nM | GI50 [42]: 2680 nM | TGI [42]: 6320 nM | GI50 [43]: 1610 nM | TGI [43]: 3200 nM | GI50 [44]: 1640 nM | TGI [44]: 4060 nM | GI50 [45]: 1280 nM | TGI [45]: 2880 nM | GI50 [46]: 1920 nM | TGI [46]: 6040 nM
